Values after ≈ are worked out from the molar mass of the structure shown.
What was measured:
Candida albicans [1] = assay: Antifungal activity against Candida albicans SC5314 by broth microdilution method; type: functional
Candida albicans [2] = assay: Antifungal activity against Candida albicans SC5314 assessed as inhibition of yeast to hyphae conversion after 4 hrs by microscopic analysis; type: functional, organism-based; conditions: SC5314, 4 h

Row | SMILES | MIC50 (Candida albicans [1]) | IC50 (Candida albicans [2])
1 | CC(C)c1ccc2c(c1)C(=O)CC1C(C)(C)[C@@H](O)CC[C@]21C (stereo partly drawn) | 427 µM (≈ 128 µg/mL) | 97.3 µM
2 | CC(C)c1ccc2c(c1)[C@H](O)CC1C(C)(C)[C@@H](O)CC[C@]21C (stereo partly drawn) | – | 739 µM
3 | CO[C@@]1(C(C)C)C=C2C(=O)C[C@@H]3C(C)(C)[C@H](O)CC[C@@]3(C)[C@@H]2C[C@H]1O | 731 µM (≈ 256 µg/mL) | 334 µM
4 | C=C[C@]1(C)C=C2[C@@H](CC1)[C@]1(C)CC[C@@H](O)C(C)(C)[C@H]1C[C@@H]2O | – | 399 µM
5 | C=CCc1ccc(O)c(-c2cc(CC=C)ccc2O)c1 [MAGNOLOL] | – | 7.5 µM
6 | OC(Cn1cncn1)(Cn1cncn1)c1ccc(F)cc1F [FLUCONAZOLE] | 1.6 µM (≈ 0.49 µg/mL) | –

Source: ChEMBL document CHEMBL3739409, “Bioactive ent-Pimarane and ent-Abietane Diterpenoids from the Whole Plants of Chloranthus henryi” (J Nat Prod, 2015)
